Experimental data as given in ChEMBL document CHEMBL3864150, “Synthesis and cytotoxicity study of novel 3-(triazolyl)coumarins based fluorescent scaffolds” (Bioorg Med Chem Lett, 2016).

Legend:
[1] = Cytotoxicity against human HeLa cells after 24 hrs by MTT assay; format: functional, cell-based
[2] = Cytotoxicity against human MCF7 cells after 24 hrs by MTT assay; format: functional, cell-based; conditions: MCF7, 24 h
[3] = Cytotoxicity against human MRC5 cells after 24 hrs by MTT assay
HeLa = experiment: Selectivity factor, ratio of IC50 for human MRC5 cells to IC50 for human HeLa cells
MCF7 = experiment: Selectivity factor, ratio of IC50 for human MRC5 cells to IC50 for human MCF7 cells
[4] = Drug uptake in human MCF7 cells at 20 uM after 2 hrs by fluorescence microscopy; format: ADME, cell-based; conditions: mcf7, 2 h

| Structure (SMILES) | IC50 [1] [µM] | IC50 [2] [µM] | IC50 at 24 h [3] [µM] | Ratio IC50 (HeLa) | Ratio IC50 (MCF7) | Drug uptake [4] |
| --- | --- | --- | --- | --- | --- | --- |
| COc1cccc2cc(-n3nnc4c3-c3ccccc3N(C(=O)CCN)Cc3ccccc3-4)c(=O)oc12 | 26.2 | 21.9 | 92.8 | 3.54 | 4.24 | – |
| [N-]=[N+]=Nc1cc2cc(Br)ccc2oc1=O | 28.3 | 23.7 | 70.4 | 2.48 | 2.97 | – |
| COc1cccc2cc(N=[N+]=[N-])c(=O)oc12 | 36.4 | 31.5 | 58.7 | 1.61 | 1.85 | – |
| [N-]=[N+]=Nc1cc2ccc(O)cc2oc1=O | 41.6 | 38.4 | 62.7 | 1.5 | 1.63 | – |
| [N-]=[N+]=Nc1cc2ccccc2oc1=O | 29.6 | 26.7 | 70.2 | 2.37 | 2.63 | – |
| NCCC(=O)N1Cc2ccccc2-c2nnn(-c3cc4cc(Br)ccc4oc3=O)c2-c2ccccc21 | 18.2 | 10.7 | 100 | 5.49 | 9.4 | – |
| NCCC(=O)N1Cc2ccccc2-c2nnn(-c3cc4ccc(OCCBr)cc4oc3=O)c2-c2ccccc21 | 19.5 | 18.5 | 121 | 6.19 | 6.52 | – |
| NCCC(=O)N1Cc2ccccc2-c2nnn(-c3cc4cc(Cl)cc(Cl)c4oc3=O)c2-c2ccccc21 | 17.5 | 9.83 | 185 | 10.58 | 18.84 | Active |
| NCCC(=O)N1Cc2ccccc2-c2nnn(-c3cc4ccc(O)cc4oc3=O)c2-c2ccccc21 | 21.1 | 18.4 | 90.2 | 4.27 | 4.9 | Active |
| [N-]=[N+]=Nc1cc2cc(Cl)cc(Cl)c2oc1=O | 27.6 | 18.6 | 67.2 | 2.43 | 3.6 | – |
| NCCC(=O)N1Cc2ccccc2-c2nnn(-c3cc4ccccc4oc3=O)c2-c2ccccc21 | 19.8 | 12.7 | 110 | 5.55 | 8.68 | – |
| COc1cccc2c1C(=O)c1c(O)c3c(c(O)c1C2=O)C[C@@](O)(C(=O)CO)C[C@@H]3O[C@H]1C[C@H](N)[C@H](O)[C@H](C)O1 [DOXORUBICIN] | 5.2 | – | 70.6 | – | – | – |
